# Patent US20140350081A1, “INSECT G-COUPLED RECEPTORS USEFUL AS TARGETS FOR INSECTICIDES AND COMPOUNDS AND REAGENTS IDENTIFIED USING THE SAME” (priority 2011, published 2014)
# Read-outs that look alike come from different tables or passages of the source.
# How the values were obtained:
# Isdop2 [1] = molecular target: T1, Isdop2 (Ixodes scapularis, UniProt A0ACM8DGL0); assay: cell-based
# Ae. aegypti larvae = assay: whole plant or invertebrate; assay type: in vivo; details: Aedes aegypti, 24 h, read-out: average larval mortality
# Experimental: Single dose-point and dose response in vivo mosquito bioassays were used to assess the toxicity of selected AaDop2 receptor antagonists identified in the chemical screen. Larvae of Ae. aegypti (Liverpool strain) were reared under standard laboratory conditions on a 12 hr day/night cycle at 75% RH and 28° C., and bioassays were conducted at room temperature (22-24° C.). Larvae were transferred from standard rearing trays into six-well tissue culture plates (Corning, Inc. Corning, N.Y.) using a small plastic pipette. Ten L4-stage larvae were included per well, each containing five ml of de-ionized water and an assigned drug concentration. Controls were conducted similarly but lacked a drug treatment. Bioassays employed a double-blind experimental design, and larval mortality was scored 24 hr following administration of drugs. Single dose-point assays were conducted using 400 μM drug and included three biological replicates each consisting of 100 larvae.
# Isdop2 [2] = molecular target: T1, Isdop2; assay: cAMP accumulation in HEK 293 cells transiently expressing Isdop2; assay type: cell-based; details: for effect on dopamine-stimulated cAMP, Isdop2: 10 μM antagonist with 1 μM dopamine
# Isdop1 [3] = molecular target: T2, Isdop1 (Ixodes scapularis, UniProt A0ACM8FJJ0); assay: cAMP accumulation in HEK 293 cells transiently expressing Isdop1; assay type: cell-based; details: for effect on dopamine-stimulated cAMP, Isdop1: 10 μM antagonist with 1 μM dopamine
# Isdop2 [4] = molecular target: T1, Isdop2; assay: cAMP accumulation confirmation assay, cells stably expressing Isdop2; assay type: cell-based
# Isdop1 [5] = molecular target: T2, Isdop1; assay: cAMP accumulation confirmation assay, cells stably expressing Isdop1; assay type: cell-based
# AaDOP2 [6] = molecular target: T3, AaDOP2 (Aedes aegypti, UniProt H6D5H2); assay: CRELuc reporter dose-response in HEK293 cells stably expressing AaDOP2; assay type: cell-based; details: for behaviour at the AaDOP2 receptor in follow up CRCs: HEK 293-CRELuc cells, FIG. 21A
# AaDOP2 [7] = molecular target: T3, AaDOP2; assay: AaDOP2 agonist screen against the LOPAC1280 library; assay type: cell-based; details: 10 μM compound; percent of response to 1 μM dihydrexidine
# Isdop1 [8] = molecular target: T2, Isdop1; assay: CRE-Luc reporter assay, HEK cells stably expressing Isdop1; assay type: cell-based
# Isdop2 [9] = molecular target: T1, Isdop2; assay: CRE-Luc reporter assay, HEK cells stably expressing Isdop2; assay type: cell-based
# AaDOP1 = AaDOP1 (Aedes aegypti, UniProt H6D5H1); assay: CRELuc reporter dose-response in HEK293 cells stably expressing AaDOP1; assay type: cell-based
# AaDOP2 [10] = molecular target: T3, AaDOP2; assay: HTRF cAMP accumulation concentration response assay (Cisbio Dynamic 2); assay type: cell-based; details: AaDOP2 expressing cells in the presence of dopamine; No Inhibition = <10% inhibition at 3 μM test compound; read-out: IC50 ± S.E.M. (nM), HTRF cAMP assay
# AaDOP2 [11] = molecular target: T3, AaDOP2; assay: LOPAC1280 antagonist screen in HEK-CRELuc-Aadop2 cells; assay type: cell-based; details: 10 μM compound, 300 nM dopamine, quadruplicate
# Ae. aegypti L3 larvae [12] = assay: whole plant or invertebrate; details: Aedes aegypti
# [13] = test system: adult male Blatella germanica; assay: Cockroach contact assay (topical application); assay type: in vivo; details: 200 mM compound
# Source text: (§1) A series of whole organism bioassays was developed to further evaluate the toxicity of chemistries to a range of agricultural, veterinary and public health pests and non-target insects (Tables 12 and 13). These assays are designed to rapidly explore the biological activity spectrum of chemistries as well as to facilitate initial investigations of the mode of action of insecticidal compounds. Briefly, assays were developed for the German cockroach (Blatella germanica, urban pest), termite (Reticulitermes flavipes; urban pest), lone star tick (Amblyomma americana; veterinary and public health pest), soybean aphid (Aphis glycines, agricultural pest) and honeybee (Apis mellifera; beneficial, non-target insect). The assays were designed to test the toxicity and speed of kill of multiple chemistries on contact. Each of these assays was performed as a single point dose experiment in triplicate using either topical application of compound to the ventral thorax ([…]; 50-80 μg effective dose depending on compound) as is the case for our cockroach and honeybee assays, or 10 second immersion in a solution of the compound diluted in water or DMSO:EtOH to a final concentration of 100 μM. The assays were conducted in 24-well plate format with mortality assessment following incubation at 22° C. as described above. Commercial insecticides were incorporated in these assays to provide a positive control and permit initial comparative analyses. Lead chemistries identified in our in vivo screen have been evaluated in the cockroach and termite assays.
# [14] = test system: adult male Blatella germanica; assay: Cockroach assay of Table 16 (title contact assay, text feeding assay); assay type: in vivo; details: 200 mM compound
# Source text: as §1
# [15] = test system: adult Reticulitermes flavipes; assay: Termite immersion assay; assay type: in vivo; details: in vivo
# Source text: A series of whole organism bioassays was developed to further evaluate the toxicity of chemistries to a range of agricultural, veterinary and public health pests and non-target insects (Tables 12 and 13). These assays are designed to rapidly explore the biological activity spectrum of chemistries as well as to facilitate initial investigations of the mode of action of insecticidal compounds. Briefly, assays were developed for the German cockroach (Blatella germanica, urban pest), termite (Reticulitermes flavipes; urban pest), lone star tick (Amblyomma americana; veterinary and public health pest), soybean aphid (Aphis glycines, agricultural pest) and honeybee (Apis mellifera; beneficial, non-target insect). The assays were designed to test the toxicity and speed of kill of multiple chemistries on contact. Each of these assays was performed as a single point dose experiment in triplicate using either topical application of compound to the ventral thorax (1 μl of a […] compound solution in 1:1 v:v DMSO:EtOH vehicle; 50-80 μg effective dose depending on compound) as is the case for our cockroach and honeybee assays, or 10 second immersion in a solution of the compound diluted in water or DMSO:[…] The assays were conducted in 24-well plate format with mortality assessment following incubation at 22° C. as described above. Commercial insecticides were incorporated in these assays to provide a positive control and permit initial comparative analyses. Lead chemistries identified in our in vivo screen have been evaluated in the cockroach and termite assays.
# Ae. aegypti L3 larvae [16] = details: 400 μM, three independent experiments, listed as Cis-flupenthixol
# AaDOP2 [17] = molecular target: T3, AaDOP2; details: read-out: Affinity (Aedesdop2); values equal the Table 3 IC50 values
# Ae. aegypti L3 larvae [18] = assay: Ae. aegypti L3 concentration response and time course assays; assay type: in vivo, Aedes aegypti
# Experimental: Briefly, chemistries were diluted to appropriate concentration in water and added to the wells of 24-well plates containing 5 L3 stage Ae. aegypti larvae to achieve a final concentration of 400, 200, 100, 50 and 25 μM in 1 ml sterile RO water. Chemistries were tested in quadruplicate at each concentration. […] Results reported here represent a minimum of three independent CRC experiments (i.e., n=3).
# [19] = read-out: % Inhibition (of response to dopamine), Isdop2 screen
# [20] = 10 μM biogenic amine, 300 nM propranolol, cAMP accumulation, mean±standard error
# [21] = 10 μM antagonist, 1 μM dopamine
# [22] = 10 μM antagonist with 1 μM dopamine, relative to dopamine alone
# [23] = 48 h, read-out: Toxicity to Aedes aegypti larvae (mortality) 48 hours, 400 μM, L3 larvae, three independent experiments
# [24] = 72 h, read-out: Toxicity to Aedes aegypti larvae (mortality) 72 hours, 400 μM, L3 larvae, three independent experiments
# T3 sequence (H6D5H2 entry or part of it): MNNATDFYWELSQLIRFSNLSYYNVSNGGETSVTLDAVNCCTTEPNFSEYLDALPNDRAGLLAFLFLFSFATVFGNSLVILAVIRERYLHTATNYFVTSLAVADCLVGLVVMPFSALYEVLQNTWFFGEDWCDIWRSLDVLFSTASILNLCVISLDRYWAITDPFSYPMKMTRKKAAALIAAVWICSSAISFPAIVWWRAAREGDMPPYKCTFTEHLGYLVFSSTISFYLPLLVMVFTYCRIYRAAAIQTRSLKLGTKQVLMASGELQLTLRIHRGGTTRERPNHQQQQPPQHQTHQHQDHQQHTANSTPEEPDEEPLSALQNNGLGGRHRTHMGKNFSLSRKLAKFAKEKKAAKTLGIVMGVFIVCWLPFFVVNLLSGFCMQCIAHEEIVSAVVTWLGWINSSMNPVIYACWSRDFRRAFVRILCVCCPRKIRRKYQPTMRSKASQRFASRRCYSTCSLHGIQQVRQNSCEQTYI
# T1 sequence (A0ACM8DGL0 entry or part of it): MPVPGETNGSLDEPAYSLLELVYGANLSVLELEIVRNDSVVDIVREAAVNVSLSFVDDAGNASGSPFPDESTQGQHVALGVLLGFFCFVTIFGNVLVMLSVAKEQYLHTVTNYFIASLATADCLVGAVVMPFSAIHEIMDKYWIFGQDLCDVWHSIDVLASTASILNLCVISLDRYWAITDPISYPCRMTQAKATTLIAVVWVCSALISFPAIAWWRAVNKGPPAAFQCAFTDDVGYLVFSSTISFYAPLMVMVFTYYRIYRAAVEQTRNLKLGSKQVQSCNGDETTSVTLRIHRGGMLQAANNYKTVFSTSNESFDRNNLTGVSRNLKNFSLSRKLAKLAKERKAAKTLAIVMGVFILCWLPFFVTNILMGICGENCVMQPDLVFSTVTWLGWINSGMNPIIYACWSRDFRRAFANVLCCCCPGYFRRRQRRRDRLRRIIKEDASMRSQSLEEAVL
# Chain of AaDOP1 (H6D5H1 entry or part of it): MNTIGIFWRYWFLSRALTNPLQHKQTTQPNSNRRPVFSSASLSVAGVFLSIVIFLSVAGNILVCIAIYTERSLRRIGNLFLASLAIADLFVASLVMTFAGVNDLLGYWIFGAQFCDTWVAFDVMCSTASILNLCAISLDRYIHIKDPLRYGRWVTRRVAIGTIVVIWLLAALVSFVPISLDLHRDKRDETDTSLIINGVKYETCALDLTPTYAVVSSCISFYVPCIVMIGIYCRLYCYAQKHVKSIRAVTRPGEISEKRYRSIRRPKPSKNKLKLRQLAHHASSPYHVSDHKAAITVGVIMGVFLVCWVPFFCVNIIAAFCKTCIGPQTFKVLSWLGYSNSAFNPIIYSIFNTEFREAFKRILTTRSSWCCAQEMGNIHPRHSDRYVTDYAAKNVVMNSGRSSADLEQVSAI
smiles,measurement,setting,value
"CN(C)CCC=C1c2ccccc2COc2ccccc21 (mixture of isomers) [Doxepin, ((Z)-3-(dibenzo[b,e]oxepin-11(6H)-ylidene)-N,N-dimethylpropan-1-amine)]",inhibition at 10 µM,Isdop2 [1]; [19],87%
same,mortality at 400 µM,Ae. aegypti larvae,57%
"CC(C)(C)[C@]1(O)CCN2CC3c4ccccc4CCc4cccc(c43)[C@@H]2C1 (single isomer, unassigned; (+)) [(+)-Butaclamol, 3-(1,1-dimethylethyl)-2,3,4,4a,8,9,13b,14-octahydro-1H-benzo[6,7]cyclohepta[1,2,3-de]pyrido[2,1-a]isoquinolin-3-ol]","effect on dopamine-stimulated cAMP, Isdop2",Isdop2 [2],antagonistic effects
same,"effect on dopamine-stimulated cAMP, Isdop1",Isdop1 [3],did not cause a similar response
same,IC50,Isdop2 [4],0.32 µM
same,IC50,Isdop1 [5],3.5 µM
CNC[C@H](O)c1ccc(O)c(O)c1 [Epinephrine],behaviour at the AaDOP2 receptor in follow up CRCs,AaDOP2 [6],partial agonists
same,% of DHX,AaDOP2 [7],90%
same,EC50,Isdop1 [8],1.9 ± 0.3 µM
same,EC50,Isdop2 [9],3.5 ± 1 µM
NC[C@H](O)c1ccc(O)c(O)c1 [Norepinephrine],Stimulatory response (fold-over-basal) Isdop2,Isdop2 [2]; [20],2.43 ± 0.65 fold-over-basal
same,behaviour at the AaDOP2 receptor in follow up CRCs,AaDOP2 [6],partial agonists
same,% of DHX,AaDOP2 [7],86%
same,EC50,Isdop1 [8],2.2 ± 0.3 µM
same,Stimulatory response (fold-over-basal) Isdop1,Isdop1 [3]; [20],1.46 ± 0.10 fold-over-basal
same,EC50,Isdop2 [9],4.3 ± 1.3 µM
same,EC50,AaDOP1; HEK293 cells stably expressing CRELuc reporter and AaDOP1,0.76 ± 0.18 µM
"CN1CCc2cc(Cl)c(O)cc2C(c2ccccc2)C1 (stereo not shown) [SCH23390, 8-chloro-3-methyl-5-phenyl-1,2,4,5-tetrahydro-3-benzazepin-7-ol]","effect on dopamine-stimulated cAMP, Isdop2",Isdop2 [2],antagonistic effects
same,inhibition of dopamine-mediated stimulation of AaDOP2,AaDOP2 [6]; [21],robustly inhibited
same,inhibition of luciferase activity Isdop1,Isdop1 [8]; [22],74%
same,effect on constitutive activity of Isdop1,"Isdop1 [8]; antagonist alone, CRE-Luc",inhibition of the constitutive activity of Isdop1 was observed
same,IC50,AaDOP2 [10],1300 nM
same,% of the SCH23390 effect,AaDOP2 [11],83%
same,"effect on dopamine-stimulated cAMP, Isdop1",Isdop1 [3],significant reduction in levels of intracellular cAMP
same,IC50,Isdop2 [4],0.12 µM
same,inhibition at 10 µM,Isdop2 [1]; [19],77%
same,inhibition at 10 µM,Isdop2 [1]; read-out: average inhibitory effect of antagonist control across all sixteen plates,86 ± 6%
same,inhibition of luciferase activity Isdop2,Isdop2 [9]; [22],69%
same,inhibition of dopamine-mediated stimulation of AaDOP1,AaDOP1; [21],robustly inhibited
same,mortality at 400 µM,"Ae. aegypti L3 larvae [12]; 24 h, read-out: Toxicity to Aedes aegypti larvae (mortality) 24 hours, 400 μM, L3 larvae, three independent experiments",3%
same,mortality at 400 µM,Ae. aegypti L3 larvae [12]; [23],23%
same,mortality at 400 µM,Ae. aegypti L3 larvae [12]; [24],47%
same,IC50,Isdop1 [5],0.057 µM
"OCCN1CCN(CC/C=C2/c3ccccc3Sc3ccc(C(F)(F)F)cc32)CC1 [cis-(Z)-Flupenthixol, ((Z)-2-(4-(3-(2-(trifluoromethyl)-9H-thioxanthen-9-ylidene)propyl)piperazin-1-yl)ethanol)]",% Mortality 24 hrs,[13],10%
same,% Mortality 48 hrs,[13],10%
same,% Mortality 72 hrs,[13],10%
same,% Mortality 120 hrs,[13],20%
same,% Mortality 240 hrs,[13],20%
same,% Mortality 24 hrs,[14],3%
same,% Mortality 48 hrs,[14],10%
same,% Mortality 72 hrs,[14],10%
same,% Mortality 120 hrs,[14],20%
same,IC50,AaDOP2 [10],0.35 ± 0.07 nM
same,mortality of adult termites,[15],70-100%
same,Toxicity to Aedes aegypti larvae (mortality) 24 hours,Ae. aegypti L3 larvae [16],100%
same,% of the SCH23390 effect,AaDOP2 [11],88%
same,IC50,Isdop2 [4],0.87 µM
same,inhibition at 10 µM,Isdop2 [1]; [19],92%
same,IC50,AaDOP2 [17],0.02 µM
same,LT50,"Ae. aegypti L3 larvae [18]; 400 μM, L3 larval time course assay",54 min
same,LC50,Ae. aegypti L3 larvae [18]; Aedes aegypti,88 µM
same,mortality at 400 µM,"Ae. aegypti L3 larvae [12]; 0.5 h, read-out: percent mortality 0.5 hr, 400 uM, L3 larvae, value for this scoring time",10%
same,mortality at 400 µM,"Ae. aegypti L3 larvae [12]; 1 h, read-out: percent mortality 1 hr, 400 uM, L3 larvae, per scoring time",30%
same,mortality at 400 µM,"Ae. aegypti L3 larvae [12]; 2 h, read-out: percent mortality 2 hr, 400 uM, L3 larvae, per scoring time",10%
same,mortality at 400 µM,"Ae. aegypti L3 larvae [12]; 3 h, read-out: mortality within three hours, 400 μM, L3 larvae",> 70%
same,mortality at 400 µM,"Ae. aegypti L3 larvae [12]; 3 h, read-out: percent mortality 3 hr, 400 uM, L3 larvae, per scoring time",10%
same,mortality at 400 µM,"Ae. aegypti L3 larvae [12]; 4 h, read-out: percent mortality 4 hr, 400 uM, L3 larvae, per scoring time",0%
same,mortality at 400 µM,"Ae. aegypti L3 larvae [12]; 24 h, read-out: percent mortality 24 hr, 400 uM, L3 larvae, per scoring time",0%
same,mortality at 400 µM,Ae. aegypti L3 larvae [12]; [23],100%
same,mortality at 400 µM,"Ae. aegypti L3 larvae [12]; 48 h, read-out: percent mortality 48 hr, 400 uM, L3 larvae, per scoring time",0%
same,mortality at 400 µM,"Ae. aegypti L3 larvae [12]; 72 h, read-out: Cumulative % Mortality (72 hrs), 400 uM, L3 larvae",100%
same,mortality at 400 µM,Ae. aegypti L3 larvae [12]; [24],100%
same,mortality at 400 µM,"Ae. aegypti L3 larvae [12]; 72 h, read-out: percent mortality 72 hr, 400 uM, L3 larvae, per scoring time",0%
same,IC50,Isdop1 [5],3.7 µM
